How the values were obtained:
[1] = tested on: NCI-H1155 Tumor Xenografts; test: LC-MS Analysis of NAD+ in NCI-H1155 Tumor Xenografts; assay type: in vivo, mice; details: oral gavage
Description: The purpose of this assay is to measure effects of NAMPT inhibitors on NAD^+ formation in cancer cells. LC-MS analysis of NAD^+ metabolites: nicotinamide mononucleotide (NMN), NAD^+, reduced nicotinamide adenine dinucleotide (NADH), and nicotinamide adenine dinucleotide phosphate (NADP) is performed on an HPLC system coupled to a Thermo Quantum Ultra triple quadrupole mass spectrometer operated in positive heated electrospray mode with selected reaction monitoring detection. For cell extracts, 50 μL of extract and 10 μL of 10 μM internal standard (IS) solution is transferred to a 96-well plate, dried under nitrogen and reconstituted in 50 μL of water. For tissue extracts, 20 μL of extract and 10 μL of IS solution are dried and reconstituted in 50 μL water. The IS solution contains 10 μM nicotinamide-d4 (C/D/N Isotopes), nicotinic acid-d4 (C/D/N Isotopes), nicotinamide mononucleotide-d4 (prepared by custom synthesis) and nicotinamide 1,N^6-ethenoadenine dinucleotide in methanol. The metabolites are separated on a Waters XBRIDGE™ Amide (2.1×50 mm, 3 μm) with an injection volume of 10 μL and a flow rate of 1 mL/minute using 10 mM ammonium acetate in 95% acetonitrile for mobile phase A and 10 mM ammonium acetate in 50% acetonitrile for mobile phase B. The gradient is as follows: 0 minutes, 0% B; 2.5 minutes, 70% B; 2.51 minutes, 100% B; 2.8 minutes, 100% B; 2.81 minutes, 0% B, 3.6 minutes, 0% B.
The purpose of this assay is to measure the effects of NAMPT inhibitors on NAD^+ levels in vivo as described above. Tumors are grown and treated as described below for efficacy in xenograft tumor models below (7 animals/group). Each compound is also formulated as described for efficacy in xenograft tumor models below. Vehicle is 20% of CAPTISOL® and 25 mM of phosphate buffer, pH 2 without compound. After the completion of the treatment, tumor tissues (˜50 mg each) are homogenized in an ice cold extraction buffer (1 mL of 70% methanol/water; HPLC grade for 2 minutes in a tissue lyser II (QIAGEN™) at frequency 30 Hz. The resulting preparations are centrifuged at 14000×g for 6 minutes. The supernatant fractions (500 μL each) are collected and extracted with chloroform (0.5 mL). The aqueous fractions (0.3 mL each) are collected into a 96-well plate ready for LC-MS analysis. The LC-MS analysis of NAD metabolites is performed as described above.
The purpose of this assay is to measure reduction in tumor volume in response to test compound administration. A2780 and NCI-H1155 (NSCLC) cells are grown as described above for IVTI studies. Cells are harvested and injected subcutaneously onto the rear flank of nude mice. When tumors are established (7-21 days after implant), animals are randomized and grouped into control and test groups (7 animals/group). The test compound is formulated in 20% of CAPTISOL® and 25 mM of phosphate buffer, pH 2. Test compound and vehicle (20% of CAPTISOL® and 25 mM of phosphate buffer, pH 2 without compound) are administered by oral gavage. Tumor response is determined by tumor volume measurement (caliper) performed twice a week during the course of treatment and reported as percent of tumor volume of each treatment group divided by tumor volume of the vehicle control group. […]

[2] = tested on: MCF-7 (breast cancer) cells; test: Cell Viability Assay, MCF-7; assay type: cell-based; details: Homo sapiens, MCF7, 72 hours
Description: (§1) The purpose of this assay is to measure the ability of a compound to reduce viability of different cancer cells dependent on the NAMPT-mediated NAD^+ formation in vitro. HCC1937 (breast cancer) cells are cultured in RPMI-1640 supplemented with 10% FBS. Calu-6 (lung cancer) cells and MCF-7 (breast cancer) cells are cultured in Minimum Essential Medium (MEM) (Gibco11095) supplemented with 1 mM sodium pyruvate (Gibco 11360), 1% Non-Essential Amino Acids Solution (100×; Gibco 11140) and 10% FBS. NCI-H1155 (lung cancer) cells are cultured in Dulbecco's Modified Eagle Medium (DMEM) (Gibco 11965) with 10% FBS. […] Cell viability is analyzed by using an assay kit (CYTOTOX-GLO™ Cytotoxicity Assay kit, Promega) according to the manufacturer's instructions as follows. […] Luminescence is measured using a Wallac Victor3 V 1420 Multilabel Counter (Perkin Elmer), referred to as dead cell luminescence. […] After the plate is incubated at room temperature for 15 minutes, luminescence is measured using the plate reader, referred to as total luminescence. Viable cell luminescence (CPS) is calculated by subtracting the dead cell luminescence from the total luminescence Inhibition of cell viability is calculated based on the equation as follows:
(§2) Inhibition (%)=(CPSnegative−CPSsample)/(CPSnegative−CPSpositive)*100 where CPS is the luminescence of viable cells.

[3] = tested on: NCI-H1155 (lung cancer) cells; test: Cell Viability Assay, NCI-H1155; assay type: cell-based; details: Homo sapiens, 72 hours
Description: as §1, §2

| IC50 [2] [nM] | IC50 [3] [nM] | SMILES | NAD levels (pmol/mg tissue) ([1]; 2.5 mg/kg (BID)) | NAD levels (pmol/mg tissue) ([1]; 5 mg/kg (BID)) | NAD levels (pmol/mg tissue) ([1]; 10 mg/kg (BID)) | NAD levels (pmol/mg tissue) ([1]; 20 mg/kg (BID)) | NAD levels (pmol/mg tissue) ([1]; 8 mg/kg (BID)) | NAD levels (pmol/mg tissue) ([1]; 16 mg/kg (BID)) | NAD levels (pmol/mg tissue) ([1]; 32 mg/kg (BID)) |
| --- | --- | --- | --- | --- | --- | --- | --- | --- | --- |
| 389 ± 283 | 18 ± 3 | CC(C)(O)CS(=O)(=O)Nc1ccc2c(c1)CCN(C(=O)COc1cccnc1)C2 [Example 1, 2-Hydroxy-2-methyl-N-[2-[2-(3-pyridyloxy)acetyl]-3,4-dihydro-1H-isoquinolin-6-yl]propane-1-sulfonamide] | 11.38 | 7.48 | 3.63 | 1.82 | – | – | – |
| 352 ± 252 | 37 ± 16 | COCCS(=O)(=O)Nc1ccc2c(c1)CCN(C(=O)COc1cccnc1)C2 [Example 2, 2-Methoxy-N-[2-[2-(3-pyridyloxy)acetyl]-3,4-dihydro-1H-isoquinolin-6-yl]ethanesulfonamide] | – | – | – | – | 5.19 | 1.98 | 0.84 |

From patent US20160229835A1, “NOVEL PYRIDYLOXYACETYL TETRAHYDROISOQUINOLINE COMPOUNDS USEFUL AS NAMPT INHIBITORS” (ELI LILLY AND COMPANY, priority 2013, published 2016)
